Data taken from ChEMBL document CHEMBL1201862, “PubChem BioAssay data set” (2004).
Active and inactive are the calls of the source.

Legend:
Leucine aminopeptidase = target: T1, Leucine aminopeptidase (Plasmodium falciparum 3D7, UniProt Q8IL11); experiment: P. falciparum M17LAP inhibitors, primary screen, biochemical, fluorogenic H-Leu-NHMec substrate, 1536-well (AID 1619); type: functional
T1 sequence (Q8IL11 whole entry): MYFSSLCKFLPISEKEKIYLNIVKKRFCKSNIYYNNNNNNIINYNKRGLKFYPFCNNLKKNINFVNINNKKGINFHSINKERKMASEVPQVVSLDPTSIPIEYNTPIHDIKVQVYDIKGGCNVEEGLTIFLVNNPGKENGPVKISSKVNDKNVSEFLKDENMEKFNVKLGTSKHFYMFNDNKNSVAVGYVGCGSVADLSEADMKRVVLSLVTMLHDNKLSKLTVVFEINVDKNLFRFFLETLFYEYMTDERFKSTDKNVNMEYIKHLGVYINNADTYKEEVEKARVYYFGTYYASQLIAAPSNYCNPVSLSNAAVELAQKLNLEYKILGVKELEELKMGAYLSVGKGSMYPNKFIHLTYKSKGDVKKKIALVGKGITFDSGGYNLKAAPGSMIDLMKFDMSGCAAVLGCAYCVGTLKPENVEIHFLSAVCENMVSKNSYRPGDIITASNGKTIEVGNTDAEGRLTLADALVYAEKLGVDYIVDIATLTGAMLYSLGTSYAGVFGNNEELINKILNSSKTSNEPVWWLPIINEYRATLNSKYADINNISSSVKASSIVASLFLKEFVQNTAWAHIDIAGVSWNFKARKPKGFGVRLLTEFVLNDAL

[1] = inhibitors of clade B AD8 Env fusion, dose response, cell-based, cherry-pick (AID 652062); type: functional;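 further: luciferase signal from cell-cell fusion driven by HIV-1 clade B AD8 Env; potency is for inhibitors of fusion seen as a drop in luminescence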
[2] = target: T2, Polyadenylate-binding protein 1 (Homo sapiens, UniProt P11940); experiment: PABP1 MLLE–PAM2 binding inhibitor potency, dose response, biochemical, fluorescence polarization, FITC-PAM2 peptide (AID 602259); type: functional; conditions: read-out: IC50_Mean
T2 sequence (P11940 whole entry): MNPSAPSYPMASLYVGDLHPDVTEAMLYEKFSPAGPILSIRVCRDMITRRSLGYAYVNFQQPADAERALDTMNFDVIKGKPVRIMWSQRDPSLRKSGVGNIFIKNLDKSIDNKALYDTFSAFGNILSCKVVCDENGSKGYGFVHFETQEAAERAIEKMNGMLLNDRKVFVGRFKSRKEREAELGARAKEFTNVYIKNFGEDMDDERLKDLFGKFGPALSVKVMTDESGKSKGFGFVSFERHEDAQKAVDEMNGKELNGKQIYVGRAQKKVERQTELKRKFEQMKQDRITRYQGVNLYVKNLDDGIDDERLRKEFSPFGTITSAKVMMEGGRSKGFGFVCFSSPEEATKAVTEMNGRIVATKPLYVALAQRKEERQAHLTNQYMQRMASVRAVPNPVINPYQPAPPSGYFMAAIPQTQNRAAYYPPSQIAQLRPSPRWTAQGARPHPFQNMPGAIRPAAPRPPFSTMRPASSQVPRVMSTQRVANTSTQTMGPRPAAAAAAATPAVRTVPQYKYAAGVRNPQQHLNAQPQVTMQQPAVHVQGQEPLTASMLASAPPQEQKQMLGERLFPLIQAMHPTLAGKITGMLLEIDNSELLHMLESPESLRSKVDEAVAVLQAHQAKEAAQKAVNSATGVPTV

[3] = target: T2, Polyadenylate-binding protein 1; experiment: PABP1 MLLE–PAM2 interaction inhibitors, dose response, miRNA deadenylation inhibitor project, biochemical, fluorescence polarization, Cy5-PAM2 peptide, secondary (AID 602260); type: functional; conditions: read-out: IC50_Mean
Paired box protein Pax-8 = Paired box protein Pax-8 (Homo sapiens, UniProt Q06710); experiment: inhibitors of PAX8-driven TPO luciferase reporter, dose response, RMG-I cells, cherry-pick (AID 687027); type: functional, cell-based;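 further: luciferase reporter driven by Pax8 target thyroperoxidase promoter measured by SteadyGlo luminescence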
Sequence of Paired box protein Pax-8 (Q06710 whole entry): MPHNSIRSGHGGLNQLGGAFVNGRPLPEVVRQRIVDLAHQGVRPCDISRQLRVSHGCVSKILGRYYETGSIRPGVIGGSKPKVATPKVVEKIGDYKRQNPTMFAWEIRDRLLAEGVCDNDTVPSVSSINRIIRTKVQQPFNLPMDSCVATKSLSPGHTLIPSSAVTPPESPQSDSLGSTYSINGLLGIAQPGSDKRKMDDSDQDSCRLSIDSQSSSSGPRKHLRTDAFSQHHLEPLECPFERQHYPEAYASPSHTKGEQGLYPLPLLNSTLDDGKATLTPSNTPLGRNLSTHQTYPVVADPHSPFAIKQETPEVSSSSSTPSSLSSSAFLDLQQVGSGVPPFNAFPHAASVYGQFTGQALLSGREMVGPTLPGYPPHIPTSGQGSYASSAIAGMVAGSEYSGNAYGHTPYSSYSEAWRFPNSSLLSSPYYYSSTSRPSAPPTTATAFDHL

[4] = NIH:OVCAR-3 ovarian cancer cell cytotoxicity, dose response, PAX8 inhibitor project, plate reader, dry powder samples (AID 743044); type: functional, cell-based
Genome polyprotein = Genome polyprotein (dengue virus type 2, UniProt P29990); experiment: Dengue-2 NS5 methyltransferase inhibitors, primary screen, biochemical, confirmation dose response (AID 588689); type: functional
Sequence of Genome polyprotein (P29990 2492-3391 limits assumed): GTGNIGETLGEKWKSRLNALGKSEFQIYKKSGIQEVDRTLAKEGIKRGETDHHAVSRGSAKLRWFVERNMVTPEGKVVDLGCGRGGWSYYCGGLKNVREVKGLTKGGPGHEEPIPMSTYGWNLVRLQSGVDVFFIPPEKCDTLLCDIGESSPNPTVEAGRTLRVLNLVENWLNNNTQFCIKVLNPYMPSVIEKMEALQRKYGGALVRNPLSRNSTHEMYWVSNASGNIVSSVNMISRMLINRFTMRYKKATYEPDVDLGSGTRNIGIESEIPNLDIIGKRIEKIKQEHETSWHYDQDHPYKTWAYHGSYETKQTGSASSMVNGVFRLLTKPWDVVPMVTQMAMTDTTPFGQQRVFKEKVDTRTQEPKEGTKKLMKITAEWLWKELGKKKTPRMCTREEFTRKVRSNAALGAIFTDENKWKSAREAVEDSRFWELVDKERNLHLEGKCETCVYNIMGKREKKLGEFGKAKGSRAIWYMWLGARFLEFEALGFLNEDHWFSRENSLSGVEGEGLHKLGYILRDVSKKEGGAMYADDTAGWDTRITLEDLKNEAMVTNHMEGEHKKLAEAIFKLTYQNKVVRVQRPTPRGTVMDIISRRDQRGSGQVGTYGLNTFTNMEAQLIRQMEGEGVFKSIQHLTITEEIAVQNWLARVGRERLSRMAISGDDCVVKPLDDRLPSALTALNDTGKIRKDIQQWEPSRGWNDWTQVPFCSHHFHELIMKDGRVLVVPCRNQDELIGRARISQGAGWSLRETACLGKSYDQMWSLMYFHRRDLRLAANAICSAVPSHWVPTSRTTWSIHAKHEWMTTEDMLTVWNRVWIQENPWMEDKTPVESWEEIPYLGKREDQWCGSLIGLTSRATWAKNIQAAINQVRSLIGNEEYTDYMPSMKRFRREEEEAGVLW

Fatty acid synthase [5] = target: T3, Fatty acid synthase (Homo sapiens, UniProt P49327); experiment: FAS thioesterase domain inhibitors, dose response, biochemical, endpoint fluorescence intensity, uHTS hits (AID 624327); type: functional;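 further: fluorescence from hydrolysis of an O-methyl fluorescein acyl ester substrate by the enzyme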
T3 sequence (P49327 whole entry, the tested form may be a part): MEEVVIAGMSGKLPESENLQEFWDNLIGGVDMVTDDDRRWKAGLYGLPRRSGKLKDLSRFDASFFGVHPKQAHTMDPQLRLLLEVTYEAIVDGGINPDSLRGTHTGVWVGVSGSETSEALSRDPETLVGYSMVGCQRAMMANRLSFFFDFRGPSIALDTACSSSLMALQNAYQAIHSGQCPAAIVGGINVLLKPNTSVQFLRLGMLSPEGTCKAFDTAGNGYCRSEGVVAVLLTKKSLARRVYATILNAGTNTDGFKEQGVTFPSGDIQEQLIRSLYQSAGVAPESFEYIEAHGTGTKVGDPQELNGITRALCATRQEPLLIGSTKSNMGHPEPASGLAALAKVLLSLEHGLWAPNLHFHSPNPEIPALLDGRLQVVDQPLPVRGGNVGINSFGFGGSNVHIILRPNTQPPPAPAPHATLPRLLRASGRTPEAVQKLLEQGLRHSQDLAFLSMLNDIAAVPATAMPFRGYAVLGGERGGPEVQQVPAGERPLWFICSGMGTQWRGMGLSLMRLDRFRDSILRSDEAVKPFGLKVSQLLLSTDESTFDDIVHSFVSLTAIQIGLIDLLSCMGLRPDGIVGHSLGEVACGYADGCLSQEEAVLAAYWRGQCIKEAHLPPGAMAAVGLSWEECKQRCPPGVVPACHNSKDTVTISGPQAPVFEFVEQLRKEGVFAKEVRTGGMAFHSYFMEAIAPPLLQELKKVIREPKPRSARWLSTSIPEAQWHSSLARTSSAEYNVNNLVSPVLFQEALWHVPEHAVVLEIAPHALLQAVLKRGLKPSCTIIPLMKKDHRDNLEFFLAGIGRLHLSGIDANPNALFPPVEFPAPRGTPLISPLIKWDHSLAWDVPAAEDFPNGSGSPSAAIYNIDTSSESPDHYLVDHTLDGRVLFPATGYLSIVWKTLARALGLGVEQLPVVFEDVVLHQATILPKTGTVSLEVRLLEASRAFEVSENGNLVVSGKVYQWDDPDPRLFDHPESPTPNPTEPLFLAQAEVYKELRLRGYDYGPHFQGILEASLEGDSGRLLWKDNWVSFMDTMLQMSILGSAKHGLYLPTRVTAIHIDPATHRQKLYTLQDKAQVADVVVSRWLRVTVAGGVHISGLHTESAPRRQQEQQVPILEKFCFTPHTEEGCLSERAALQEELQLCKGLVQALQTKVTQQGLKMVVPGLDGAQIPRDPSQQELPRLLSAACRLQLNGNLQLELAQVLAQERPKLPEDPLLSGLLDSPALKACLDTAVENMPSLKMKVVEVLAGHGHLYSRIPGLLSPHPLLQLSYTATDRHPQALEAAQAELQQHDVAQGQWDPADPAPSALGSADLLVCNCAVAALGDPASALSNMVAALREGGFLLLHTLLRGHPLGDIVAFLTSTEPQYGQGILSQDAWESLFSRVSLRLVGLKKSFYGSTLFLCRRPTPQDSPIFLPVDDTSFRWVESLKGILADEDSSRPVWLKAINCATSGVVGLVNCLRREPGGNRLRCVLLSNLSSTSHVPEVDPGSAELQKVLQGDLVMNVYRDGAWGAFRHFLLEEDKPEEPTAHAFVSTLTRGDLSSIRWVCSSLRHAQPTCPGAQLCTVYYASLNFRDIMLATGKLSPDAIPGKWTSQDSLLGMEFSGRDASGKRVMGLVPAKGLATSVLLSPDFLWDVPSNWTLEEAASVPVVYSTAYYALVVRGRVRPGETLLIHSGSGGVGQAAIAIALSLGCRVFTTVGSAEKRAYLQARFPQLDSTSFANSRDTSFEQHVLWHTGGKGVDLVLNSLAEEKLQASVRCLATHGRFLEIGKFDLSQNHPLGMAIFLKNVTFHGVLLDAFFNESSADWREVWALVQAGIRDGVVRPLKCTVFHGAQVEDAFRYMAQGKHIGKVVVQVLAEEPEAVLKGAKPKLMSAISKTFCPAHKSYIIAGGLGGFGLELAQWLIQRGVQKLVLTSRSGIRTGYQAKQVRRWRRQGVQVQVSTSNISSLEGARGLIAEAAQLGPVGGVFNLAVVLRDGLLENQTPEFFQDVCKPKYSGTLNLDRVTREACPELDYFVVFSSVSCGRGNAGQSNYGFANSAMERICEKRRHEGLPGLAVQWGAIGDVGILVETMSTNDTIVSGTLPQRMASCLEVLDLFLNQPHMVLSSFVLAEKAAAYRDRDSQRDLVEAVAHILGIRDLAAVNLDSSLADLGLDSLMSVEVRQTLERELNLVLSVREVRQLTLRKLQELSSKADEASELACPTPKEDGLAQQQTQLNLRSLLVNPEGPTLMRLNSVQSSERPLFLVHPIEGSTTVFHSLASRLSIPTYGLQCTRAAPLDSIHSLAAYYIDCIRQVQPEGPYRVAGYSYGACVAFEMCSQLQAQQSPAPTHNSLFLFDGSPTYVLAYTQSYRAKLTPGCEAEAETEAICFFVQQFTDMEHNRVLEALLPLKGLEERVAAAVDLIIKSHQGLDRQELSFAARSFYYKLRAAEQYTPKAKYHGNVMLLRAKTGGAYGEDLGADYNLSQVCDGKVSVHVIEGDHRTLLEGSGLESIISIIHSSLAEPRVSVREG

Fatty acid synthase [6] = target: T3, Fatty acid synthase; experiment: FAS thioesterase domain inhibitors, dose response, biochemical, kinetic fluorescence intensity (AID 624326); type: functional;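 further: rate of fluorescence rise from hydrolysis of a fluorogenic O-methyl fluorescein ester substrate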
[7] = target: T4, Carboxy-terminal domain RNA polymerase II polypeptide A small phosphatase 1 (Homo sapiens, UniProt Q9GZU7); experiment: inhibitors of CTDSP1, concentration-response testing, biochemical assay, absorbance-based, actives from ultra-high-throughput screening (AID 540297); type: functional
T4 sequence (Q9GZU7 whole entry): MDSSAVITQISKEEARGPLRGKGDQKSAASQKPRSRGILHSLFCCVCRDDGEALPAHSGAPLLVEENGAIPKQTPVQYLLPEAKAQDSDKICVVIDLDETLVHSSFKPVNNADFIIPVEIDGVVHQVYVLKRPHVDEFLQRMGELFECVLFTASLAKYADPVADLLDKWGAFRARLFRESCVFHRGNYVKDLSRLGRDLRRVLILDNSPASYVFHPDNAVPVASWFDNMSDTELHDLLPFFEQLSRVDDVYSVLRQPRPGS

[8] = target: T5, Corticotropin-releasing factor receptor 2/Corticotropin-releasing factor-binding protein (Homo sapiens, UniProt P24387+Q13324); experiment: activators of CRF receptor 2 with binding protein – uHTS hits, confirmation (AID 602473); type: functional; conditions: read-out: EC50_Mean
T5 sequence (Q13324 whole entry): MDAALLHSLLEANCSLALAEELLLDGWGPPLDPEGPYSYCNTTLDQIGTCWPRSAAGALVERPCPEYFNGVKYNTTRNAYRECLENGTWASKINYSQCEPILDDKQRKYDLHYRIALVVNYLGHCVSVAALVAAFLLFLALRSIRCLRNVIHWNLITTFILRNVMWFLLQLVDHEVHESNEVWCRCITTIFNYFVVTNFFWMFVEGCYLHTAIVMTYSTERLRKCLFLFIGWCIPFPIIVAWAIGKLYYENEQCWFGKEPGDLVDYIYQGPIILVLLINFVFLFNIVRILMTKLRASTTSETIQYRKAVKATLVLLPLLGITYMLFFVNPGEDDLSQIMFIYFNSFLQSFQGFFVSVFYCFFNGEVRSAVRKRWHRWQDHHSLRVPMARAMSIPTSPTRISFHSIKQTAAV
T5 sequence (P24387 whole entry): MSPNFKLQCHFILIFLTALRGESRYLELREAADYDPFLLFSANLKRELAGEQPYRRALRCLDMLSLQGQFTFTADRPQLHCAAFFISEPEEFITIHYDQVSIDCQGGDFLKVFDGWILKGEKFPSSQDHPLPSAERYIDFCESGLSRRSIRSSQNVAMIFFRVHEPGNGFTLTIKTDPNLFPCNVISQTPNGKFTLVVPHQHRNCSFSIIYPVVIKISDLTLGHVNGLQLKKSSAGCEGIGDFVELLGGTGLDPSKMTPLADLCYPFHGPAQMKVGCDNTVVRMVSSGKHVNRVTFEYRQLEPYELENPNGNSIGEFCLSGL

[9] = target: T5, Corticotropin-releasing factor receptor 2/Corticotropin-releasing factor-binding protein; experiment: Dose Response confirmation of uHTS hits for small molecule antagonists of the CRF-binding protein and CRF-R2 receptor complex.; type: functional; conditions: read-out: IC50_Mean
[10] = Shn3 3'UTR reporter inhibitors, dose response, cell-based, Clone20 osteoblasts, firefly luciferase, cherry-picked (AID 624132); type: functional;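 further: firefly luciferase luminescence from reporter carrying the Shn3 3'UTR in osteoblasts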
[11] = control 3'UTR Renilla luciferase suppression, dose response, counter-screen for Shn3 inhibitor project, cell-based, Clone20-Shn3RL, cherry-picked (AID 624133); type: functional

Structure (SMILES): N#Cc1c(NC(=O)Cn2cnc3ccccc3c2=O)oc(-c2ccccc2)c1-c1ccccc1
- IC50 (Leucine aminopeptidase): 1.47 µM (active)

Structure (SMILES): O=C1COc2ccc(-c3cs/c(=N\c4ccc(OC(F)F)cc4)n3CC3CCCO3)cc2N1 (configuration not stated)
- AC50 [1]: 18.6 µM (active)

Structure (SMILES): Cc1cc(C)n2cc(CSc3nnc(N)s3)nc2n1
- IC50 [2]: > 66 µM (inactive)
- IC50 [3]: > 66 µM (inactive)

Structure (SMILES): C[C@@H]1CN([C@H](C)CO)C(=O)c2cc(NC(=O)Nc3ccc(F)cc3)ccc2O[C@@H](C)CCCCO[C@H]1CN(C)S(=O)(=O)c1ccccc1
- AC50 (Paired box protein Pax-8): 4.82 µM (active)
- AC50 [4]: 35.3 µM (active)

Structure (SMILES): C#CCOc1ccc(/C=C2/C(=O)ON=C2C)cc1Cl
- IC50 (Genome polyprotein): 97.1 µM (active)

Structure (SMILES): CCOc1ccc(NC(=O)Cc2ccccc2)c([N+](=O)[O-])c1
- IC50 (Leucine aminopeptidase): 2.92 µM (active)

Structure (SMILES): O=C(O)c1ccc2c(c1)NC(=O)C(N1CCCC1)S2 (configuration not stated)
- IC50 [2]: 55.5 µM (inactive)
- IC50 [3]: > 66 µM (inactive)

Structure (SMILES): O=C(O)CC(Cc1ccccc1)C(=O)Nc1ccc([N+](=O)[O-])cc1 (configuration not stated)
- IC50 (Leucine aminopeptidase): 15.7 µM (active)

Structure (SMILES): CC(C)(C)c1ccc(C(=O)N2CCC2(C)C(=O)Nc2cccc(C#N)c2)cc1 (configuration not stated)
- IC50 (Fatty acid synthase [5]): 5.47 µM (active)
- IC50 (Fatty acid synthase [6]): 7.78 µM (active)

Structure (SMILES): CN(C)c1nc2n(c(=O)n1)C(C#N)CS2 (configuration not stated)
- IC50 [2]: > 66 µM (inactive)
- IC50 [3]: > 66 µM (inactive)

Structure (SMILES): CCOC(=O)c1sc(=S)n(-c2ccc3c(c2)OCO3)c1N
- IC50 [2]: > 66 µM (inactive)
- IC50 [3]: > 66 µM (inactive)

Structure (SMILES): O=C(NC(=S)Nc1ccccc1)c1cc([N+](=O)[O-])ccc1N1CCOCC1
- IC50 (Fatty acid synthase [5]): 17.2 µM (active)
- IC50 (Fatty acid synthase [6]): 8.19 µM (active)

Structure (SMILES): O=C(COC(=O)CCc1c[nH]c(O)n1)Nc1ccccc1
- IC50 [2]: 44.9 µM (inactive)
- IC50 [3]: > 66 µM (inactive)

Structure (SMILES): O=C(Nn1c(C2CCCCC2)nc2ccccc2c1=O)c1ccc(Cl)c([N+](=O)[O-])c1
- IC50 (Fatty acid synthase [5]): 12.8 µM (active)
- IC50 (Fatty acid synthase [6]): 11.2 µM (active)

Structure (SMILES): Cc1cccc(C(=O)Oc2ccc(/C=N/NC(=O)c3cc(O)cc(O)c3)cc2)c1
- IC50 [7]: 4.14 µM (active)

Structure (SMILES): CC(C)C(=O)Nc1nnc(SCC(=O)Nc2ccc3c(c2)OCCO3)s1
- IC50 (Leucine aminopeptidase): 18.9 µM (active)

Structure (SMILES): Cc1ccccc1NC(=O)CSc1nnc(C)c(O)n1
- IC50 [2]: > 66 µM (inactive)
- IC50 [3]: > 66 µM (inactive)

Structure (SMILES): CN1C[C@H](C(=O)N[C@]2(C)O[C@@]3(O)[C@@H]4CCCN4C(=O)[C@H](Cc4ccccc4)N3C2=O)CC2c3cccc4[nH]cc(c34)C[C@H]21 (some centres not stated)
- IC50 (Fatty acid synthase [5]): 10.4 µM (active)
- IC50 (Fatty acid synthase [6]): 8.09 µM (active)

Structure (SMILES): CC(=O)NS(=O)(=O)c1ccc(/N=c2\ssc3c2-c2cc(C)c(C)cc2NC3(C)C)cc1
- IC50 (Leucine aminopeptidase): 3.72 µM (active)

Structure (SMILES): CN(C)c1ccc(/C=N/NC(=O)c2nonc2N)cc1[N+](=O)[O-]
- IC50 (Leucine aminopeptidase): 56.1 µM (active)

Structure (SMILES): CCCCCCn1c(=O)c(F)cn(Cc2ccc(OC)c([N+](=O)[O-])c2)c1=O
- IC50 (Fatty acid synthase [5]): 10.2 µM (active)
- EC50 [8]: > 53 µM (inactive)
- IC50 (Fatty acid synthase [6]): 11.3 µM (active)
- IC50 [9]: > 47.1 µM (inactive)

Structure (SMILES): COc1ccccc1-n1cc(-c2ccc([N+](=O)[O-])cc2)nc1S
- IC50 [2]: > 66 µM (inactive)
- IC50 [3]: > 66 µM (inactive)

Structure (SMILES): COc1ccc(/C=C(/NC(=O)c2ccc([N+](=O)[O-])cc2)C(=O)NC(C)(C)C)cc1
- IC50 (Fatty acid synthase [5]): 3.45 µM (active)
- IC50 (Fatty acid synthase [6]): 2.56 µM (active)

Structure (SMILES): O=C1NC(=S)N/C1=C/C=C/c1ccccc1
- IC50 (Genome polyprotein): 99.8 µM (active)

Structure (SMILES): Cc1ccc([C@@H]2CC=C(C(=O)O)[C@H](c3ccc(Br)cc3)N2S(=O)(=O)c2ccc(C)cc2)cc1
- IC50 (Genome polyprotein): 42.5 µM (active)

Structure (SMILES): CCN(c1ccccc1)S(=O)(=O)c1ccc(Cl)c(NC(=O)CN(C)Cc2cccc(F)c2)c1
- AC50 [10]: 8.78 µM (active)
- AC50 [11]: 6.46 µM (active)

Structure (SMILES): O=C(CN1C(=O)c2ccccc2C1=O)NCC1COc2ccccc2O1 (configuration not stated)
- IC50 (Leucine aminopeptidase): 15.6 µM (active)

Structure (SMILES): CCc1cccc(CC)c1NC(=O)CSc1nnc(CCC(=O)O)c(O)n1
- IC50 [2]: > 66 µM (inactive)
- IC50 [3]: > 66 µM (inactive)

Structure (SMILES): O=C1Nc2ccc(Cl)cc2C12Nc1ccccc1-c1nnc(SCc3ccccc3F)nc1O2 (configuration not stated)
- IC50 (Genome polyprotein): 43.2 µM (active)

Structure (SMILES): COc1ccc(C(=O)N/C(=C\c2cn(S(=O)(=O)N(C)C)c3ccccc23)C(=O)NCCCN2CCOCC2)cc1
- IC50 (Fatty acid synthase [5]): 8.48 µM (active)
- IC50 (Fatty acid synthase [6]): 7.83 µM (active)

Structure (SMILES): CCC(C)CCCCCCCCCCC(=O)O (configuration not stated)
- IC50 (Genome polyprotein): 42 µM (active)

Structure (SMILES): N#Cc1c(C(F)(F)F)cc(-c2cccs2)nc1SC(C(=O)O)c1ccccc1 (configuration not stated)
- IC50 (Fatty acid synthase [5]): 4.45 µM (active)
- IC50 (Fatty acid synthase [6]): 5.81 µM (active)
